Results on nine compounds are retold here after patent publication US20110151034A1, “ANTIBACTERIAL AGENT AND DISINFECTING METHOD” (Mitsubishi Chemical Corporation, priority 2008, published 2011).

For experiment [1], the system named is Listeria monocytogenes ATCC49594. Kind of experiment: Antibacterial test in BHI culture medium: turbidity, inhibitory ratio and bacteria growth (Experimental Example 2). The format is cell-based. The note with it: for Number of bacteria (cfu/ml): culture 30° C. 24 hours, then BHI agar 37° C. 24 hours; for Inhibitory ratio (%): from turbidity vs dimethylsulfoxide standard; for Inhibitory ratio (%) / Turbidity of culture fluid: 30° C. for 24 hours; for Turbidity of culture fluid: 660 nm. As to the method:
The above obtained isolated components were diluted with dimethylsulfoxide (manufactured by KANTO CHEMICAL CO., INC.) to prepare three test liquids at fraction concentrations (wt %) of 2%, 1% and 0.5%. As positive controls, erythromycin (manufactured by Wako Pure Chemical Industries Ltd.) was dissolved in ethanol (Junsei Chemical Co., Ltd.) to have a concentration of 1,000 ppm, 500 ppm or 250 ppm. As a negative control, sterilized water was used.
The antibacterial test was carried out by using Listeria monocytogenes ATCC49594 as follows.
(1) 8.9 ml of a brain heart infusion (BHI) culture medium (manufactured by NISSUI PHARMACEUTICAL CO., LTD.) was put in a test tube and treated in an autoclave (manufactured by TOMY SEIKO CO., LTD., TOMY BS-325). The culture medium concentration was adjusted to achieve a specified concentration when 0.1 ml of the above test liquid was added.
Listeria monocytogenes ATCC 49594 was cultured in the BHI culture medium by shake culture at 37° C. for 1 hour and diluted to an appropriate bacteria concentration (2.0×10^3 cfu/ml) by the BHI culture medium.
To the test tube in which 8.9 ml of the BHI culture medium prepared in the above (1) was put, 0.1 ml of the prepared test liquid and 1 ml of the bacteria liquid prepared in the above (2) were added, stirred and left at rest at 30° C. for 24 hours.
The turbidity of the culture fluid in the test tube left at rest at 30° C. for 24 hours was measured by a turbidimeter (manufactured by TAITEC CORPORATION, miniphoto 518R) at a wavelength of 660 nm. The inhibitory ratio was calculated from the following formula, where A is the turbidly in the case of a culture fluid to which 0.1 ml of dimethylsulfoxide was added instead of the test liquid.
Inhibitory ratio (%)=[(A−[turbidity of culture fluid])/A]×100
The culture fluid in the test tube left at rest at 30° C. for 24 hours was diluted with a phosphate buffer solution (PBS) and smeared on a BHI agar medium. After culturing at 37° C. for 24 hours, the number of bacteria on the agar medium was measured by observation with a microscope. With respect to the dilution with PBS, the culture fluid was preliminarily properly diluted within a range of from 10^2 to 10^9 times to such a concentration that the number of bacteria can be counted with a microscope 24 hour later (the number of bacteria 24 hours later was calibrated in accordance with the proportion preliminarily diluted with PBS).

Experiment [2] has as its system Listeria monocytogenes JCM2873. As to the kind of experiment: Antibacterial test, colony formation on Mueller Hinton agar after culture with sample (Experimental Example 1). The following applies: 10 ppm at the time of test; 37° C. for 24 hours, then agar 37° C. for 2 days; negative control 3×10^8 cfu/ml. The format is cell-based. The protocol:
The components (Terpenoid-1 and Terpenoid-2) isolated from the water-insoluble rosemary extract were dissolved in DMSO (dimethylsulfoxide) at a concentration of 2,000 ppm to obtain samples for antibacterial activity test. The antibacterial test was carried out as follows using Listeria monocytogenes JCM2873. 8.95 ml of Mueller Hinton Broth (MHB) culture medium was put in a test tube and sterilized in an autoclave. The culture medium concentration was adjusted to achieve a specified concentration when 50 μl of the sample was added. Listeria monocytogenes JCM2873 was cultured by shake culture at 37° C. for 1 day in the MHB culture medium, and diluted to an appropriate bacteria concentration (3.1×10^4 cfu/ml) by the MHB culture medium. To the test tube in which 8.95 ml of the MHB culture medium prepared in the above (1) was put, 50 μl of the sample and 1 ml of the bacteria liquid prepared in the above (2) were added and stirred (isolated component concentration at the time of test: 10 ppm) and left at rest at 37° C. for 24 hours. As a negative control and a positive control, sterilized water and erythromycin (solution at a concentration of 2,000 ppm in ethanol) were added instead of the sample. From the test tube left at rest at 37° C. for 24 hours, a loopful of the culture fluid was collected and smeared on a Mueller Hinton agar medium. After culturing at 37° C. for 2 days, formation of colonies on the agar medium and its degree were judged.

The mark [3] stands for this setting: 50, 100, 200 ppm, same conditions as for Terpenoid-1 and Terpenoid-2.
The mark [4] stands for this setting: at a concentration of 50 ppm or higher.

As to `CCO[C@H]1c2cc(C(C)C)c(O)c(O)c2[C@@]23CCCC(C)(C)[C@@H]2[C@@H]1OC3=O` [7α-Ethoxyrosmanol, 7α-ethoxyrosmanol], in experiment [1] (setting [3]), the “antibacterial activity against Listeria monocytogenes (in words)” value (from here on “antibacterial activity”) is recorded as “low or no antibacterial activity”. The “Number of bacteria (cfu/ml)” value was 2.5 × 10^9 cfu/ml in experiment [1] (added substance 50 ppm), 3.6 × 10^9 cfu/ml in experiment [1] (added substance 100 ppm) and 3.8 × 10^9 cfu/ml in experiment [1] (added substance 200 ppm). For the same compound, the “Inhibitory ratio (%)” value in experiment [1] (added substance 50 ppm) stood at 4.0%; in experiment [1] (added substance 100 ppm), 0.5%; in experiment [1] (added substance 200 ppm), 2.6%.
In the case of `COc1c(C(C)C)cc2c(c1O)C1(C(=O)O)CCCC(C)(C)C1CC2` (stereo not drawn) [12-Methoxy-tarns-carnosic acid, 12-methoxy-trans-carnosic acid], the “antibacterial activity” value in experiment [1] (setting [3]) is recorded as “low or no antibacterial activity”. Moreover, the figures for the “Number of bacteria (cfu/ml)” value in experiment [1] (added substance 50 ppm), in experiment [1] (added substance 100 ppm) and in experiment [1] (added substance 200 ppm) were 3.1 × 10^9 cfu/ml, 4.1 × 10^9 cfu/ml and 4.3 × 10^9 cfu/ml, respectively. The entries for the “Inhibitory ratio (%)” value in experiment [1] (added substance 50 ppm), in experiment [1] (added substance 100 ppm) and in experiment [1] (added substance 200 ppm) were 11.8%, 17.7% and 20.6%, respectively.
In the case of `C=C(C)[C@@H]1CC[C@]2(C(=O)O)CC[C@]3(C)[C@H](CC[C@@H]4[C@@]5(C)CC[C@H](O)C(C)(C)[C@@H]5CC[C@]43C)[C@@H]12` [Betulinic acid], the “Number of bacteria (cfu/ml)” value in experiment [1] (added substance 50 ppm) was 4.0 × 10^9 cfu/ml; in experiment [1] (added substance 100 ppm), 4.5 × 10^9 cfu/ml; in experiment [1] (added substance 200 ppm) it was 3.0 × 10^9 cfu/ml. Also, the “Inhibitory ratio (%)” value in experiment [1] (added substance 50 ppm), in experiment [1] (added substance 100 ppm) and in experiment [1] (added substance 200 ppm) was 0.0% in each case.
Take `CC(C)c1cc2c(c(O)c1O)[C@@]13CCCC(C)(C)[C@@H]1C[C@@H]2OC3=O` [Carnosol]: in experiment [1] (setting [3]), the “antibacterial activity” value is recorded as “low or no antibacterial activity”. The “Number of bacteria (cfu/ml)” value in experiment [1] (added substance 50 ppm) is 4.3 × 10^9 cfu/ml; in experiment [1] (added substance 100 ppm) it was 4.7 × 10^9 cfu/ml; in experiment [1] (added substance 200 ppm), 3.9 × 10^9 cfu/ml. The “Inhibitory ratio (%)” value in experiment [1] (added substance 50 ppm), in experiment [1] (added substance 100 ppm) and in experiment [1] (added substance 200 ppm) was 0.0% throughout.
Regarding `CC(C)c1cc2c(c(O)c1O)[C@@]13CCCC(C)(C)[C@@H]1[C@H](OC3=O)[C@@H]2O` [Epirosmanol], in experiment [1] (setting [3]), the “antibacterial activity” value was “low or no antibacterial activity”. The “Number of bacteria (cfu/ml)” value in experiment [1] (added substance 50 ppm) is recorded as 4.0 × 10^9 cfu/ml; in experiment [1] (added substance 100 ppm) it was 4.2 × 10^9 cfu/ml; in experiment [1] (added substance 200 ppm) it was 3.2 × 10^9 cfu/ml. Also, the “Inhibitory ratio (%)” value in experiment [1] (added substance 50 ppm), in experiment [1] (added substance 100 ppm) and in experiment [1] (added substance 200 ppm) was 0.0% in each case.
Take `CC[C@H]1OC(=O)[C@H](C)[C@@H](O[C@H]2C[C@@](C)(OC)[C@@H](O)[C@H](C)O2)[C@H](C)[C@@H](O[C@@H]2O[C@H](C)C[C@H](N(C)C)[C@H]2O)[C@](C)(O)C[C@@H](C)C(=O)[C@H](C)[C@@H](O)[C@]1(C)O` [Erythromycin, erythromycin]: in experiment [1] (added substance 2.5 ppm), the “Turbidity of culture fluid” value was found to be 0.011, the “Number of bacteria (cfu/ml)” value is given as 3.7 × 10^2 cfu/ml and the “Inhibitory ratio (%)” value came to 97.8%. Moreover, in experiment [1] (added substance 5 ppm), the “Turbidity of culture fluid” value was 0.022, the “Number of bacteria (cfu/ml)” value is on record as 9.5 × 10^2 cfu/ml and the “Inhibitory ratio (%)” value turned out to be 95.6%. Moreover, in experiment [1] (added substance 10 ppm), the “Turbidity of culture fluid” value is given as −0.008, the “Number of bacteria (cfu/ml)” value is recorded as 1.8 × 10^2 cfu/ml and the “Inhibitory ratio (%)” value came out at 98.4%. For the same compound, the “antibacterial property (in words)” value in experiment [1] (concentration range of from 2.5 to 10 ppm) is “high antibacterial property”. For the same compound, the “formation of colonies on the agar medium” value in experiment [2] is listed as “no formation of colonies”.
As for `CC(C)c1cc2c(c(O)c1O)[C@@]13CCCC(C)(C)[C@@H]1[C@H](OC3=O)[C@H]2O` [Rosmanol], the “antibacterial activity” value in experiment [1] (setting [3]) was “low or no antibacterial activity”. Further, the “Number of bacteria (cfu/ml)” value in experiment [1] (added substance 50 ppm) is reported as 3.9 × 10^9 cfu/ml; in experiment [1] (added substance 100 ppm) it was 3.7 × 10^9 cfu/ml; in experiment [1] (added substance 200 ppm), 3.9 × 10^9 cfu/ml. For the same compound, the “Inhibitory ratio (%)” value was 10.2% in experiment [1] (added substance 50 ppm), 5.1% in experiment [1] (added substance 100 ppm) and 16.0% in experiment [1] (added substance 200 ppm).
Consider `CC(C)c1cc2c(cc1O)[C@@]1(C)CCCC(C)(C)[C@@H]1CC2` [Terpenoid-1, ferruginol], for which, in experiment [1] (added substance 50 ppm), the “Turbidity of culture fluid” value turned out to be 0.485, the “Number of bacteria (cfu/ml)” value is 3.8 × 10^9 cfu/ml and the “Inhibitory ratio (%)” value was 4.6%. Further, in experiment [1] (added substance 100 ppm), the “Turbidity of culture fluid” value is reported as 0.290, the “Number of bacteria (cfu/ml)” value is given as 1.6 × 10^9 cfu/ml and the “Inhibitory ratio (%)” value is 43.0%. Also, in experiment [1] (added substance 200 ppm), the “Turbidity of culture fluid” value was −0.003, the “Number of bacteria (cfu/ml)” value is recorded as 3.8 × 10^6 cfu/ml and the “Inhibitory ratio (%)” value is given as 100%. The “antibacterial activity” value in experiment [1] (setting [4]) is given as “confirmed to have antibacterial activity”. In addition, the “formation of colonies on the agar medium” value in experiment [2] is recorded as “no formation of colonies”.
On to `CC(C)c1cc2c(cc1O)[C@H]1CCCC(C)(C)[C@@H]1CC2` [Terpenoid-2], for which, in experiment [1] (added substance 50 ppm), the “Turbidity of culture fluid” value is given as 0.472, the “Number of bacteria (cfu/ml)” value is recorded as 4.4 × 10^9 cfu/ml and the “Inhibitory ratio (%)” value is reported as 7.2%. Further, in experiment [1] (added substance 100 ppm), the “Turbidity of culture fluid” value was 0.402, the “Number of bacteria (cfu/ml)” value is listed as 2.5 × 10^9 cfu/ml and the “Inhibitory ratio (%)” value came out at 21.0%. For the same compound, in experiment [1] (added substance 200 ppm), the “Turbidity of culture fluid” value was found to be 0.268, the “Number of bacteria (cfu/ml)” value is listed as 1.3 × 10^9 cfu/ml and the “Inhibitory ratio (%)” value was determined as 47.2%. In experiment [1] (setting [4]), the “antibacterial activity” value is recorded as “confirmed to have antibacterial activity”. For the same compound, in experiment [2], the “formation of colonies on the agar medium” value is on record as “no formation of colonies”.
